Test results published in patent US7368287B2, “Use of L-α-lysophosphatidylcholine to obtain the differentiation of monocytes into mature dendritic cells in vitro” (Biomerieux, priority 2002, dated 2008).

Columns and labels:
[1] = tested on: naïve allogenic T lymphocytes; test: Stimulation of IL-2 and γIFN secretion by allogenic T lymphocytes (mixed leukocyte reaction, ELISA); format: cell-based, human; parameters: unit not given here; conditions: for Secretion of IL-2 by T lymphocytes / Secretion of γIFN by T lymphocytes: after 4 days; for Secretion of γIFN by T lymphocytes: Table 3; for Dendritic cell-induced secretion of γIFN by T lymphocytes: Table 8
Description: The “control” and “LPC” cells used in this analysis are those obtained after 6 days of differentiation according to the protocol described in example 1.
Naïve allogenic T lymphocytes are isolated from human peripheral blood. Peripheral blood mononuclear cells are isolated by density gradient centrifugation (600 g, 20 minutes) in the presence of Ficoll-Hypaque. After elimination of the monocytes on a Percoll gradient, the peripheral blood lymphocytes are found in the dense fraction. The T lymphocytes are purified by immunomagnetic depletion using a cocktail of anti-CD19 (antibody 4G7) (Becton Dickinson, Francklin Lakes, N.J., USA), anti-CD16 (antibody 3G8), anti-CD56 (antibody NKH1), anti-glycophorin A (antibody 11E4B7.6) and anti-CD14 (antibody RMPO52), monoclonal antibodies sold by Beckman Coulter.
The purified T lymphocytes are cultured in flat-bottomed 96-well culture plates with the “control” or “LPC” cells.
2×10^5T cells are cultured in 200 μl of culture medium according to a monocytes differentiated in the presence or absence of LPC/T cells ratio (DC/LT ratio) of 1:5, 1:10 or 1:20. After 4 days, 50 μl of the culture supernatant are used to determine the secretion of IL-2 (interleukin 2) and of γIFN (gamma interferon) using an ELISA kit (Endogen, Woburn, Mass., USA).
The inventors then used a PPARγ agonist, ciglitizone. A solution of ciglitizone (Sigma, 50 μM) was added to the culture medium on the fifth day of monocyte differentiation, as described in example 1, 15 minutes before the addition of a solution of LPC (40 μM, for […]). The cells obtained are “LPC+ciglitizone” cells. “Ciglitizone” cells were obtained according to the same protocol, but in the absence of LPC, and “LPC” cells were obtained as described in example 1, in the absence of ciglitizone.
The functional ability of these cells (“control”, “ciglitazone” and “LPC+ciglitazone” cells) to stimulate T lymphocytes (LT) were then analyzed. These cells were cultured as described in example 4, in the presence of purified allogenic T lymphocytes. The secretion of γIFN was measured as in example 4.

NF-κB = conditions: high concentration of LPC (50 μM); cited from earlier work
PPARδ = test: PPAR binding activity by gel shift on nuclear proteins of treated monocytes; format: cell-based, human
Description: Next, the inventors investigated the transcription factors involved in the maturation process induced by LPC. In order to determine whether PPARs are involved in the LPC-induced maturation, the ability of the two transcription factors PPARγ and PPARδ to bind was analyzed using the gel shift technique. 3 isotypes of PPAR nuclear receptors (peroxisome proliferator-activated receptor) exist: α, γ and δ. PPARγs are the targets for molecules of the thiazolidinedione class, such as ciglitizone, used in the treatment of type II diabetes. PPARδs have a broader expression and can be repressors of PPARγs. The monocytes undergoing differentiation were incubated for two hours with a solution of LPC (40 μM) (“LPC” cells). “Control” cells are also obtained in the absence of LPC in the culture medium. After having harvested the cells, the nuclear proteins were extracted with the Nuclear extract Kit (Sigma). The nuclear proteins were then brought into contact with a ratioactively labeled probe containing a response element recognized by PPARs. […] The PPAR binding activity was determined by measuring the intensity of these bands. These activities are expressed as a percentage with respect to the “control” cells. […]
The activity of the PPARγ and PPARδ transcription factors was measured in these cells by the gel shift technique, as described above.
INTRALIPID® regulates PPARs in vitro. […] The cells were harvested after 1 h, 2 h or 8 h of incubation with INTRALIPID®, the nuclear proteins were extracted and the activity of PPARγ and PPARδ was determined as described in example 6.
Secondly, a solution of INTRALIPID® (50 μg/ml of phospholipids) was added to the culture medium on the 5th day of monocyte differentiation, 15 minutes before the addition of a solution of LPC (40 μM) (“LPC+Intralipid” cells). […] The cells were harvested after 2 h of incubation, the nuclear proteins were extracted and the activity of PPARγ and PPARδ was determined as described in example 6.

BALB/c mice = test: Inflammation of the plantar foot pad (thickening of the foot); format: in vivo, mouse; conditions: after 24 h
Description: LPC is an inflammatory product—In this example, a solution of 100 to 500 nmol of LPC dissolved in 50 μl of PBS is injected into the plantar foot pad of BALB/c mice (Charles River Laboratories) on day 0. The plantar foot pads are measured using a micrometer before and after injection, up to the 10th day, and compared to the plantar foot pads of “control” mice, obtained by injection of PBS (50 μl). The intensity of the inflammation is reflected by the thickening of the foot. The maximum thickening is observed on the 1st day, 24 h after the injection.
INTRALIPID® blocks the inflammation and the immune response induced by LPC, in vivo. In this example, 3 batches of BALB/c mice are immunized against the hen egg lysozyme (HEL) antigen by injection of 50 μl of solution into the plantar foot pad. The “HEL” control batch receives 50 μg of HEL, the “HEL+Intralipid” batch receives a mixture of INTRALIPID® (45 μl) and of 50 μg of HEL (5 μl of a solution at 10 mg/ml). The “HEL+LPC” batch receives 50 μg of HEL with 350 nmol of LPC dissolved in PBS. The “HEL+LPC+Intralipid” batch receives 50 μg of HEL mixed with 350 nmol of LPC dissolved in 45 μl of INTRALIPID®. After 24 hours, the thickness of the foot pads is measured using a micrometer, and compared with the measurement taken before injection. The difference in thickness is proportional to the intensity of the inflammation.

Substance: L-α-lysophosphatidylcholine [LPC]
- Secretion of IL-2 by T lymphocytes ([1]; DC/LT ratio 0): 0
- Secretion of IL-2 by T lymphocytes ([1]; DC/LT ratio 0.05): 23 ± 1
- Secretion of IL-2 by T lymphocytes ([1]; DC/LT ratio 0.1): 47 ± 26
- Secretion of IL-2 by T lymphocytes ([1]; DC/LT ratio 0.2): 173 ± 31
- Secretion of γIFN by T lymphocytes ([1]; DC/LT ratio 0): 0
- Secretion of γIFN by T lymphocytes ([1]; DC/LT ratio 0.05): 73 ± 47
- Secretion of γIFN by T lymphocytes ([1]; DC/LT ratio 0.1): 439 ± 108
- Secretion of γIFN by T lymphocytes ([1]; DC/LT ratio 0.2): 795 ± 19
- Dendritic cell-induced secretion of γIFN by T lymphocytes ([1]; DC/LT ratio 0): 0
- Dendritic cell-induced secretion of γIFN by T lymphocytes ([1]; DC/LT ratio 0.05): 750 ± 184
- Dendritic cell-induced secretion of γIFN by T lymphocytes ([1]; DC/LT ratio 0.1): 899 ± 124
- Dendritic cell-induced secretion of γIFN by T lymphocytes ([1]; DC/LT ratio 0.2): 1326 ± 248
- Activity of the transcription factor NF-κB (NF-κB): inhibits
- PPARδ binding activity (PPARδ; Table 6, LPC 40 μM, two hours, percentage with respect to control cells): 263%
- PPARδ activity (PPARδ; Table 16, Intralipid 50 μg/ml phospholipids 15 minutes before LPC 40 μM, 2 h, control = 100%): 160%
- Thickening of the foot (BALB/c mice; LPC 100 nmol in 50 μl PBS into plantar foot pad): 0.35 mm
- Thickening of the foot (BALB/c mice; LPC 200 nmol): 0.55 mm
- Thickening of the foot (BALB/c mice; LPC 300 nmol): 0.725 mm
- Thickening of the foot (BALB/c mice; LPC 400 nmol): 1.125 mm
- Thickening of the foot (BALB/c mice; LPC 500 nmol): 1.075 mm
